Reference: patent publication US20250382337A1 (UNIVERSITY OF MIAMI, priority 2022, published 2025)

System: SCI pain
Details: in vivo

## NCC1(CC(=O)O)CCCCC1 [gabapentin]
  place preference in GFP (control AAV) SCI animals: induced place preference
